In patent US20070275925A1, “ASTHMA DIAGNOSIS AND THERAPY” (REGENTS OF THE UNIVERSITY OF CALIFORNIA, priority 2006, published 2007):
Entries after “also recorded” stand apart in the source; their conditions may differ.

Columns and labels:
Assay type in all cases: in vivo, human
[1] = Lung function (FEV1) in the clinical trial; conditions: by one week, sustained at 4 weeks and 8 weeks; inhaled fluticasone 500 μg twice daily
Description: In three cross sectional studies and a clinical trial, epithelial brushings were collected by bronchoscopy from 42 subjects with asthma, 16 current smokers without asthma, and 28 healthy controls. Cross-sectional studies comprised 2 visits, the first for characterization and the second for bronchoscopy. The clinical trial was a 10 week, randomized, double-blind, placebo-controlled trial specifically designed to determine the effects of inhaled fluticasone (500 μg twice daily) on airway gene expression and to relate gene expression changes to improvements in lung function (FIG. 1). Bronchoscopy was performed at baseline and repeated 1 week after starting study drug. Thirty-five subjects had adequate baseline bronchoscopy and 32 had RNA available from epithelial brushings at both bronchoscopies. Lung function was measured at intervals over the 8-week treatment period. […] Spirometry was measured at baseline, before both bronchoscopies, at 4 and 8 weeks after starting study medication, and after the one week run-out according to American Thoracic Society criteria using a dry rolling-seal spirometer (Model VRS2000, PDS Instrumentation, S&M Instrument Co., Doylestown, Pa.). Methacholine responsiveness was measured at baseline and at 4 and 8 weeks after starting study medication using a five-breath dosimeter method (modified from Chai et al).^5

[2] = Methacholine responsiveness (PC20) in the clinical trial; conditions: 4 and 8 weeks
Description: Protocol: This was a 6 visit, 10 week, randomized, double-blind, placebo-controlled trial specifically designed to determine the effects of inhaled fluticasone on airway gene expression and to relate those gene expression changes to improvements in lung function. After a one-week run-in/characterization period, subjects were randomized to receive 2 puffs BID of fluticasone propionate (250 μg/puff) or matching placebo for 8 weeks, followed by a one week run-out. Subjects were randomized in blocks designed to yield a greater number of subjects randomized to fluticasone as compared to placebo in order to maximize our ability to relate gene expression to lung function improvements within the intervention group. […] Spirometry was measured at baseline, before both bronchoscopies, at 4 and 8 weeks after starting study medication, and after the one week run-out according to American Thoracic Society criteria using a dry rolling-seal spirometer (Model VRS2000, PDS Instrumentation, S&M Instrument Co., Doylestown, Pa.). Methacholine responsiveness was measured at baseline and at 4 and 8 weeks after starting study medication using a five-breath dosimeter method (modified from Chai et al).^5

[3] = system: airway epithelial brushings; experiment: Taqman / real-time PCR gene expression in airway epithelial brushings, fluticasone trial
Description: Brushings yielded 1,300,000±800,000 cells of which 97±3% were epithelial. For microarray analysis, […] total epithelial RNA was amplified using NuGen Ovation RNA amplification system. Then 2.75 μg sscDNA was hybridized to Affymetrix U133 plus 2.0 arrays (>54,000 probe sets coding for 38,500 genes). Array images were analyzed using Affymetrix GeneChip Expression Analysis Software. Bioconductor^5 was used for quality control (affyPLM algorithm), preprocessing (RMA algorithm), cluster analysis, and linear modeling.^5-7 Raw array data are available from the Gene Expression Omnibus public database (http://www.ncbi.nlm.nih.gov/geo/, accession number pending). Selected microarray findings were confirmed by real-time PCR, enzyme linked immunosorbent assay (ELISA) or immunohistochemistry. In vitro studies of the effects of interleukin-13 (IL-13) on expression of selected genes were performed using primary airway epithelial cells grown at an air-liquid interface (additional detail in supplementary appendix).
In further analysis of the same dataset we have identified six genes (Table 4) which are differentially expressed in airway epithelial brushings from asthmatics asthma or altered by corticosteroid treatment of asthmatic subjects and which have not previously been implicated in asthma or in the mechanism of steroid benefit in asthma.

[4] = one week of treatment, n = 16, greater than one indicates suppression

CCC(=O)O[C@]1(C(=O)SCF)[C@H](C)C[C@H]2[C@@H]3C[C@H](F)C4=CC(=O)C=C[C@]4(C)[C@@]3(F)[C@@H](O)C[C@@]21C [fluticasone, fluticasone propionate]
Improvement in FEV1 versus placebo [1]: greater improvements in FEV1 than placebo
PC20 methacholine improvements, fluticasone versus placebo [2]: not statistically different; also recorded: no statistically significant differences
CST1 reduction by taqman ([3]; fluticasone arm as compared to the placebo arm): 6 fold
FLUTICASONE Change AVERAGE, CEACAM5 (ratio of gene expression before and after treatment) [3, 4]: 1.88
FLUTICASONE Change AVERAGE, CST1 (ratio of gene expression before and after treatment) [3, 4]: 5.97
FLUTICASONE Change AVERAGE, CST4 (ratio of gene expression before and after treatment) [3, 4]: 5.41
FLUTICASONE Change AVERAGE, HDAC9 (ratio of gene expression before and after treatment) [3, 4]: 2.10
FLUTICASONE Change AVERAGE, SERPINB1 (ratio of gene expression before and after treatment) [3, 4]: 2.31
